“Also recorded” adds a separate entry of the source.
What was measured:
[1] = system: human prostate cancer androgen resistant C4-2 cells; test: Growth of primary tumor in nude mice xenografted with C4-2 cells; format: in vivo
Description: In the vehicle-treated mouse, the tumor grew by size more than twice in the span of four weeks, whereas in the B1-treated mouse the tumor shrunk to about 50% of the size at the start of treatment (FIG. 2).
As shown herein, B1 exerts anti-metastatic actions with multiple mechanisms. First, the drug attenuates the growth of the primary tumor. Large tumors shed large number of metastasis seeding circulating tumor cells into circulation, thus increasing the chance of successful colonization of metastatic sites.
(§1) Importantly, in the second, third and fourth mechanisms, the drug acts independently from the size of primary tumor. This was an unexpected effect.

[2] = system: circulating tumor cells (CTCs); test: Enumeration of circulating tumor cells in blood of xenografted mice; format: in vivo, nude mice
Method: (§2) CTCs and macrophages were isolated from the blood of two nude mice xenografted with human prostate cancer androgen resistant C4-2 cells and treated biweekly intratumorally with vehicle or B1 (30 mg/kg). In the vehicle-treated mouse, the tumor grew by size more than twice in the span of four weeks, whereas in the B1-treated mouse the tumor shrunk to about 50% of the size at the start of treatment (FIG. 2).
The anti-tumor actions of B1 in nude mice were confirmed by analysis of circulating tumor cells (CTCs). Enumeration of CTCs is used as a prognostic marker in cancer patients. The enumeration was extended to include not only canonical CTCs positive for epithelial marker EpCAM, but also EpCAM negative CTC-like cells positive for markers of epithelial-mesenchymal transition (EMT), indicative of increased aggressiveness of the cells (Chen et al., 2013).

M1 and M2 macrophages = test: Enumeration of circulating M1 and M2 macrophages in blood of xenografted mice; format: in vivo, nude mice
Method: as §2
However, the numbers of circulating macrophages were also much lower in the blood of the B1-treated mouse. […] Consistently, the ratios of pro-tumor and anti-tumor macrophages in control and B1-treated mouse were approximated as 2.5 and 0.5, respectively.
Third, the drug boosts natural anti-cancer immune response. It promotes anti-metastatic profile of macrophages co-purifying with CTCs in the nude mice xenografted with human cultured androgen-independent prostate cancer cells C4-2, and treated with vehicle or with B1 (30 mg/kg). […] Data from one control and one treated mouse are presented in FIG. 5, with data from seven control and six treated mice presented below.

[3] = system: circulating tumor cells (CTCs); test: Biophysical profiling of CTCs by atomic force microscopy (PF QNM AFM); format: in vivo, nude mice; conditions: CTCs from blood of B1-treated vs control mice
Description: It was postulated that the differences in profiles of circulating macrophages, which may destroy CTCs or help them in seeding metastases, are indicative of the metastatic potential of CTCs. To determine the metastatic potential of CTCs isolated from the blood of human prostate cancer patients and mouse cancer models, biophysical profiling by atomic force microscopy (AFM) was employed. This method was used to confirm the decreased aggressiveness of CTCs isolated from the B1-treated mouse.
In short, to determine the mechanical phenotype of cells Peak Force Quantitative Nanomechanical Atomic Force Microscopy (PF QNM AFM) imaging was employed. AFM is a type of stylus profilometry. In this particular AFM technique, a micro-sized probe (tip) interacts with a cell surface with strictly controlled force. At each point of contact, the tip position and the “force plot” presenting mechanical interactions of the tip with a cell surface are recorded. Images are created during raster scanning by the tip. The parameters extracted from the force plots are assembled into topographical (cell morphology) and mechanical maps. The mechanical parameters include elasticity (i.e., pressure needed to indent the cell in a reversible manner), deformation (i.e., the depth of maximal indentation enforced by the probe without breaking the cell membrane), and adhesion (i.e., force needed to lift the tip from the cell surface during the probe withdrawal).
A single AFM scan also provides a shape of the cell to distinguish between epithelial-like and mesenchymal-like phenotypes, and roughness of the cell surface that correlates with activity of apoptotic and EMT pathways (Chen et al, 2013; Osmulski et al., 2014). The integrated inverted fluorescent microscope allows collecting correlative immunocytochemical data about the scanned cells (FIG. 7).
The probe (tip on a cantilever) indents (vertical movement) and scans (lateral movement) the cell surface. After 10-15 min scan of a 1000-2000 μm^2 area, 5 maps of cell morphology, surface topography, elasticity, deformation, and adhesion (FIG. 6) are computed from the force plots (FIG. 7) created for each of the 4000-65,500 single tip-cell contact points with horizontal resolution of 100 nm, vertical resolution of 10 nm and forces as low as 100 pN. It is established that cancerous cell are much softer, deformable and more adhesive than their normal counterparts (Osmulski et al., 2014).
Second, the drug decreases aggressiveness of CTCs. The decrease is apparent by comparison of mechanical phenotypes of CTCs isolated from mice xenografted with human cultured androgen-independent prostate cancer cells C4-2, and treated with vehicle or with B1 (30 mg/kg). The data are presented in FIGS. 11-16 and in Table 1 (FIG. 11 is an extended version of FIG. 8).

[4] = B1 maximum tolerated dose study; format: in vivo
Method: A study to determine the maximum tolerated dose was performed on 30 female CB. 17 SCID mice divided into six groups, five animals each. B1 was administered intravenously (i.v.) once a day (q.d.; three groups) or biweekly (three groups), at concentrations of 3 mg/kg, 10 mg/kg or 30 mg/kg, dissolved in 5% ethanol, 5% cremophor in water with 5% dextrose [D5W]. Mice were treated for 28 days, weighted daily on days 1-5 and then on a twice weekly schedule until day 28. They were observed frequently for adverse effects of treatment. […] Thus, B1 is non-toxic for mice even at the highest tested dose, 30 mg/kg.

[5] = PD/PK study in mice xenografted with RPMI 8226 cells; format: in vivo, SCID mice; conditions: single 30 mg/kg i.v.
Method: The study involved 11 female SCID mice, with 3 control mice injected with vehicle (5% ethanol, 5% cremophor in water with 5% dextrose [D5W]) and […] injected with B1. The presence of B1 was detected by mass spectrometry in the tumors of B1-injected mice 8 and 12 hours post-injection, at concentrations up to 30.5 ng/g.

[6] = system: M1-polarized macrophages from U937 cells; test: Live cell counts of U937-derived M1-type model macrophages; format: cell-based, Human; conditions: 1 μM B1, n=4
Method: (§3) FIGS. 17A-B: Model M2-polarized macrophages are sensitive to the treatment with B1, in contrast to model M1-polarized macrophages. (FIG. 17A) Human cultured monocytic U937 cells were in vitro differentiated into M0 macrophages and then polarized into M1-type and M2-type macrophages, in the presence of vehicle (DMSO; control) or in the presence of 1 μM B1. The inventors used established protocol to differentiate U937 cells into macrophages (M0) with PMA (phorbol myristate acetate) and then polarize them into model M1 and M2-like types with interferon γ and LPS (lipopolysaccharide) or interleukins IL-4 and IL-13, respectively. The identity of M1-type and M2-type model macrophages was confirmed by cell staining with specific markers: the fluorescent antibodies recognizing surface proteins CD80 (for M1) and CD163 (for M2). (FIG. 17B) Counts of live cells cultured in the presence or absence of B1 are presented.
(§4) And fourth, the anti-M2 macrophages actions were confirmed in cell culture model.

[7] = system: M2-polarized macrophages from U937 cells; test: Live cell counts of U937-derived M2-type model macrophages; format: cell-based, Human; conditions: 1 μM B1, T test, n=4
Method: as §3, §4

[8] = system: human cultured androgen-independent prostate cancer cells C4-2; test: Efficacy study in NOD-SCID mice xenografted with C4-2 cells; format: in vivo
Method: FIG. 18. […] The efficacy study was performed with mice xenografted with human cultured androgen-independent prostate cancer cells C4-2. The study involved eleven NOD-SCID mice. […] tumor-growing mice were treated intra-tumorally (IT) with 30 mg/kg B1 twice a week for up to three weeks. The control group (four mice) received a B1 vehicle (dimethylsulfoxide; DMSO). Tumor sizes were measured twice a week.

[9] = system: human C4-2 prostate cancer cells; test: Liver micrometastasis by H&E histology in C4-2 tumor-bearing nude mice; format: in vivo
Description: FIG. 10: H&E stained histological liver slices of control nude mice with a tumor induced using human C4-2 prostate cancer cells. Suspected micrometastasis sites are marked with black rings. A scale bar represents 500 μm. Micrometastasis was detected with an average frequency in the control group (untreated) 3.75 per mice, whereas in the B1 treated group it was 1.33 per mice.
as §1

proteasome = conditions: cited from earlier work
mTOR pathway = conditions: cited from earlier work
[10] = system: cultured breast cancer cells; conditions: breast cancer cells poorly responsive to bortezomib; cited from earlier work
[11] = B1 treated vs control mice (FIG. 16)
[12] = mice with xenografted prostate tumors
[13] = one B1-treated vs one vehicle mouse (FIG. 5)
[14] = seven control and six treated nude mice, B1 30 mg/kg

## COc1cc(CCCOC(=O)C2CCCCN2C(=O)C(=O)C2CCCCC2)cc(OC)c1OC (stereo not drawn) [Compound B1, 3-(3,4,5-trimethoxyphenyl)propyl 1-(2-cyclohexyl-2-oxoacetyl) piperidine-2-carboxylate]
[1]; one nude mouse, C4-2 xenograft, B1 30 mg/kg intratumorally biweekly, four weeks (FIG. 2)
  tumor size relative to the size at the start of treatment: about 50%
[1]; selected group of seven control and six B1-treated mice
  difference in tumor volume increase between control and B1-treated tumors: no significant difference
[2]; [11]
  number of highly invasive post-EMT CTCs: diminished
[2]; B1 treated vs control mice, heat map cluster analysis (FIG. 16)
  formation of CTCs clusters: diminished formation
[2]; [12]
  decrease of abundance of cancer cells in the blood stream vs vehicle: about five-fold
[2]; one B1-treated vs one vehicle mouse, 30 mg/kg intratumorally, EpCAM or vimentin (FIG. 4)
  numbers of CTCs in blood vs vehicle-treated mouse: significantly lower
M1 and M2 macrophages; B1-treated mouse, blood (control mouse 2.5)
  ratio of pro-tumor (M2) and anti-tumor (M1) macrophages: ~0.5
M1 and M2 macrophages; [11]
  formation of CTC-M2 (chaperoning) clusters: limited formation
  formation of M1-CTC (predatory) clusters: enhanced formation
M1 and M2 macrophages; [12]
  decrease of chaperone immune cells (M2 macrophages) vs vehicle: about four-fold
  decrease of the ratio of M2 macrophages to M1 macrophages vs vehicle-treated mouse: five-fold
M1 and M2 macrophages; [13]
  M2 pro-tumor macrophages, control mouse relative to B1-treated mouse: more than four-times
  number of M1 predator (anti-tumor) macrophages vs control mouse: very similar
M1 and M2 macrophages; one B1-treated vs one vehicle mouse, 30 mg/kg intratumorally
  numbers of circulating macrophages vs vehicle-treated mouse: much lower
M1 and M2 macrophages; [14]
  number of anti-cancer M1-type macrophages vs control: larger number
  number of pro-cancer M2-type macrophages vs control: generally lower number
[3]; AFM (FIG. 8, FIG. 11)
  CTC adhesion vs vehicle: less adhesive
  CTC deformation vs vehicle: less deformable
  CTC stiffness (elasticity, Young modulus) vs vehicle: harder; also recorded: stiffer
[3]; mechanical phenotype
  aggressiveness of CTCs: low aggressiveness; also recorded: significantly lowered aggressiveness
[4]; 30 mg/kg i.v., mice
  toxicity at the highest tested dose: non-toxic
[4]; i.v. q.d. or biweekly, 3, 10 or 30 mg/kg, 28 days
  adverse effects on behavior: no adverse effects
[4]; i.v. q.d. or biweekly, 3, 10 or 30 mg/kg, 28 days (FIG. 9)
  differences in body weight between the groups: No statistically significant differences
[5]; 8 and 12 hours post-injection, mass spectrometry
  concentration of B1 in the tumors: up to 30.5 ng/g
[5]; RPMI 8226 xenograft
  tissue localization: localized to the xenografted tumor site
[6]
  counts of live M1 model macrophages vs control: did not affect viability; also recorded: did not differ
[7]
  counts of live M2-type model macrophages vs control: significantly attenuating viability; also recorded: the difference was statistically significant
[8]; 30 mg/kg B1 intra-tumorally twice a week
  changes in the weight of animals: did not result in detectable changes
[8]; 30 mg/kg B1 intra-tumorally twice a week for up to three weeks (FIG. 18)
  tumor growth vs control group: Significant inhibition; also recorded: significantly attenuated
[9]; B1-treated mice (FIG. 10)
  incidence of micrometastases in livers vs controls: decreased incidence
[9]; B1 treated group (untreated control 3.75)
  average frequency of liver micrometastasis: 1.33 per mice
proteasome
  26S assembling: interferes with 26S assembling
  affinity of core particle toward bortezomib: increases affinity
  concentration at which proteasome activities are influenced: nanomolar concentrations
mTOR pathway
  effect on mTOR pathway: not affecting
[10]
  cytotoxic effects with bortezomib: strong cytotoxic effects
